Assay results from EP0251194A1, “Use of carbocyclic and heterocyclic condensed dihydropyridines for the preparation of cardioprotective remedies and heterocyclic and carbocyclic condensed dihydropyridines and methods and intermediates for their preparation” (BOEHRINGER INGELHEIM KG, priority 1986, dated 1988).

Legend:
[1] = system: myocardiale Radio-Calciumaufnahme; test: Inhibition of isoprenaline-induced myocardial radio-calcium uptake in conscious rats (method of Arndts); assay type: in vivo, Ratten; details: peroral administration, dose that inhibits by 50 % the myocardial radio-calcium uptake caused by 30 mg/kg s.c. isoprenaline
Description: Bekanntlich ist der myocardiale Ca⁺² -Gehalt ein Maß für die hypoxische bzw. die durch toxische Catecholamindosen hervorgerufene Herzschädigung (Higgins et al., Mol. Cell. Cardiol. 10: 427 - 438, 1984; Nakanishi et al., Am. J. Physiol. 242: 437 - 449, 1982; Fleckenstein, A., Vorträge der Erlanger Physiol. Tagung 1970, Ed. Keidel, Springer Verlag Berlin, Heidelberg, New York, 1971). Umgekehrt ist die Inhibition der hypoxischen oder Isoprenalin-bedingten mycardialen Calciumaufnahme ein Maß für die cardioprotektive Effektivität von Calciumantagonisten (Fleckenstein s.o.), von Calmodulininhibitoren (Higgins) und anderen Pharmaka, z.B. Betaadrenolytika (Arndts, Arzneimittelforschung 25: 1279 - 1284, 1975).
Die cardioprotektive Wirkung wurde an wachen Ratten nach subcutaner oder peroraler Wirkstoffgabe anhand der von Arndts (s.o.) beschriebenen Methode festgestellt, und die Wirkungsstärke der Testsubtanzen als H₅₀-Wert angegeben; dieser Wert entspricht der Dosis, die die durch eine Gabe von 30 (mg/kg; s.c.) Isoprenalin bedingte myocardiale Radio-Calciumaufnahme zu 50 % hemmt.

Isoliertes Rattenherz = test: Isolated Langendorff heart, oxygen deficiency by reduced perfusion flow, time to onset of regular contractions; design: species or system Ratten; details: isolated rat heart; infusion of test substance during the O2 deficiency state (60 min, flow reduced 100-fold)
Experimental: Die Untersuchungen am isolierten Langendorff-Herzen wurden nach O. Langendorff, Pflügers Arch. 61, 291 (1895) mit kleinen Abwandlungen ausgeführt:
Isoliertes Rattenherz, retrograde Perfusion über die Aorta. Elektrische Stimulation (300 Impulse/min, Impulsdauer 1msec). Messung des linksventrikulär entwickelten Druckes mit flüssigkeitsgefülltem Latex-Ballon. Nach 20 min Aequilibrierung Auslösen eines Sauerstoff-Mangelzustandes mit 100-fach vermindertem Fluß durch Drosselung des Perfusionsflusses für 60 min, Rückkehr zu normalem Fluß bewirkt starken Anstieg der Grundspannung, unter Kontrollbedingungen setzt die Herztätigkeit nach 6 - 7 min unregelmäßig wieder ein, nach 15 - 18 min rascher Übergang zu regelmäßigen Kontraktionen. Cardioprotektiv wirksame Verbindungen verkürzen die Zeit bis zum Einsetzen regelmäßiger Kontraktionen. Infusion der Testsubstanz (gelöst in unbegastem Perfusionsmedium) während des O₂-Mangelzustandes herznah in das Perfusionssystem.
Die getesteten Verbindungen ergaben bei Anwendung in der unten angegebenen Konzentration eine signifikante Reduktion der Zeit bis zum Einsetzen regelmäßiger Kontraktionen.

| SMILES | H50-Wert [1] | Konzentration (signifikante Reduktion der Zeit bis zum Einsetzen regelmäßiger Kontraktionen) (Isoliertes Rattenherz) |
| --- | --- | --- |
| COc1cc2c(cc1OC)C(=C(C(=O)NCCN1CCOCC1)c1ccccc1)NCC2 [Verbindung A] | 0.73 |  |
| CCCCNC(=O)C(C1=NCCc2cc(OC)c(OC)cc21)c1ccccc1 (stereo not drawn) [Verbindung B] | 0.50 | 13,3 ug/ml |
